Results reported in patent US6461997B1, “Triazole sulfones having herbicidal activity” (Monsanto Technology LLC, priority 1999, dated 2002).

What was measured:
DATST (jimsonweed) = assay: Pre-emergence herbicidal activity, warm season; assay type: in vivo, Datura stramonium; conditions: GR80 = lowest tested rate (300, 100, 30, 10 g/ha) with 80% or greater inhibition; approx. 14 days after treating; 30/21° C.
How it was run: (§1)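 GR80 values derive from percent inhibition relative to untreated plants, read roughly 14 days after sowing and pre-emergence soil-surface treatment (compound in 50:50 acetone/water; rates typically 10, 30, 100, 300 g/ha). Warm-season weeds grew at 30/21° C day/night, cool-season ones at 18/13° C; an asterisk marks activity without reaching 80% at the highest rate.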

[1] = system: SORHA (johnsongrass (seedling)); assay: Pre-emergence herbicidal activity, warm season; assay type: in vivo, Sorghum halepense; conditions: GR80 = lowest tested rate (300, 100, 30, 10 g/ha) with 80% or greater inhibition; approx. 14 days after treating; 30/21° C.
How it was run: (§2)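 Activity is expressed as the rate giving 80% inhibition, with 300, 100, 30 and 10 g/ha typically tested. An asterisk marks activity short of 80% at the top rate. Warm-season grasses were held at 30/21 °C; cool-season blackgrass and wild buckwheat at 18/13 °C; scoring at about 14 days.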

SINAR (wild mustard) = assay: Pre-emergence herbicidal activity, cool season; assay type: in vivo, Sinapis arvensis; conditions: lowest tested rate with 80% or greater inhibition; rates 300, 100, 30, 10 g/ha; about 14 days
How it was run: as §1

[2] = system: AGSST (creeping bentgrass); assay: Pre-emergence herbicidal activity, cool season; assay type: in vivo, Agrostis stolonifera; conditions: GR80 = lowest tested rate (300, 100, 30, 10 g/ha) with 80% or greater inhibition; approx. 14 days after treating; 18/13° C.
How it was run: as §1

SASKR (russian thistle) = assay: Pre-emergence herbicidal activity, cool season; assay type: in vivo, Salsola kali; conditions: lowest tested rate with 80% or greater inhibition; rates 300, 100, 30, 10 g/ha; about 14 days
How it was run: as §1

[3] = system: PANMI (wild proso millet); assay: Pre-emergence herbicidal activity, warm season; assay type: in vivo, Panicum miliaceum; conditions: GR80 = lowest tested rate (300, 100, 30, 10 g/ha) with 80% or greater inhibition; approx. 14 days after treating; 30/21° C.
How it was run: (§3)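 Pre-emergence soil-surface spray; rates 300/100/30/10 g/ha; acetone:water 50:50 diluent. Warm-season species (PANMI, DIGSA) grown at 30/21 °C, cool-season species (ALOMY, POLCO) at 18/13 °C. Inhibition scored ~14 d after treatment versus untreated controls → GR80.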

POLCO (wild buckwheat) = assay: Pre-emergence herbicidal activity, cool season; assay type: in vivo, Polygonum convolvulus; conditions: lowest tested rate with 80% or greater inhibition; rates 300, 100, 30, 10 g/ha; about 14 days
How it was run: as §3

KCHSC (kochia) = assay: Pre-emergence herbicidal activity, cool season; assay type: in vivo, Kochia scoparia; conditions: lowest tested rate with 80% or greater inhibition; rates 300, 100, 30, 10 g/ha; about 14 days
Description: (§4) Tables 5 to 8 summarize results of tests conducted as described below to determine the pre-emergence herbicidal activity, in the form of a GR80 value, of illustrative compounds of this invention. […] Compounds of the invention were typically applied at rates of 300, 100, 30, and 10 g/ha. Where herbicidal activity was evident but 80% inhibition was not achieved at the highest rate tested, an asterisk (*) is shown in the following tables.
(§5) The pre-emergence tests were conducted by the following procedure. Topsoil was sieved to pass through a 1.27 cm screen. Fertilizer was added to the topsoil and the mixture was then sterilized by heating. The topsoil mixture was placed in a pot and compacted to a depth of 1.0 to 1.25 cm from the top of the pot. Seeds of each of several monocotyledonous and dicotyledonous annual plant species were placed on top of the soil. Additional soil was subsequently placed over the seeds to level-fill the pot. A known amount of each test compound dissolved or suspended in an appropriate organic solvent was diluted with a 50:50 mix of acetone and water and applied to the surface of the soil. After treatment the plants were placed in a greenhouse where they received 0.64 cm of overhead irrigation. All subsequent watering consisted of a light overhead mist and/or subirrigation as needed for germination and growth. Tables 5 and 6 below relate to warm season plant species which were placed after pre-emergence treatment in a greenhouse with a 30/21° C. day/night temperature regime. Tables 7 and 8 below relates to cool season plant species placed after pre-emergence treatment in a greenhouse or growth chamber with an 18/13° C. day/night temperature regime.
(§6) Approximately 14 days after planting and treating, the plants were observed and herbicidal efficacy recorded as percent inhibition by comparison with untreated plants.
(§7) The plant species usually regarded as weeds which were utilized in the tests are identified in the tables below according to the following legend, in which “d” indicates a dicotyledonous species and “m” a monocotyledonous species. All monocotyledonous species included in the tests herein are grasses.

ALOMY (blackgrass) = assay: Pre-emergence herbicidal activity, cool season; assay type: in vivo, Alopecurus myosuroides; conditions: GR80 = lowest tested rate (300, 100, 30, 10 g/ha) with 80% or greater inhibition; approx. 14 days after treating; 18/13° C.
How it was run: as §3

[4] = system: CHEAL (common lambsquarters); assay: Pre-emergence herbicidal activity, warm season; assay type: in vivo, Chenopodium album; conditions: GR80 = lowest tested rate (300, 100, 30, 10 g/ha) with 80% or greater inhibition; approx. 14 days after treating; 30/21° C.
How it was run: as §1

[5] = system: VERPE (creeping speedwell); assay: Pre-emergence herbicidal activity, cool season; assay type: in vivo, Veronica persicaria; conditions: lowest tested rate with 80% or greater inhibition; rates 300, 100, 30, 10 g/ha; about 14 days
How it was run: as §1

AMARE (redroot pigweed) = assay: Pre-emergence herbicidal activity, warm season; assay type: in vivo, Amaranthus retroflexus; conditions: GR80 = lowest tested rate (300, 100, 30, 10 g/ha) with 80% or greater inhibition; approx. 14 days after treating; 30/21° C.
How it was run: as §1

SETFA (giant foxtail) = assay: Pre-emergence herbicidal activity, warm season; assay type: in vivo, Setaria faberi; conditions: GR80 = lowest tested rate (300, 100, 30, 10 g/ha) with 80% or greater inhibition; approx. 14 days after treating; 30/21° C.
How it was run: as §2

[6] = system: BRAPP (broadleaf signalgrass); assay: Pre-emergence herbicidal activity, warm season; assay type: in vivo, Brachiaria platyphylla; conditions: GR80 = lowest tested rate (300, 100, 30, 10 g/ha) with 80% or greater inhibition; approx. 14 days after treating; 30/21° C.
How it was run: as §2

[7] = system: GALAP (catchweed bedstraw); assay: Pre-emergence herbicidal activity, cool season; assay type: in vivo, Galium aparine; conditions: lowest tested rate with 80% or greater inhibition; rates 300, 100, 30, 10 g/ha; about 14 days
How it was run: as §1

DIGSA (large crabgrass) = assay: Pre-emergence herbicidal activity, warm season; assay type: in vivo, Digitaria sanguinalis; conditions: GR80 = lowest tested rate (300, 100, 30, 10 g/ha) with 80% or greater inhibition; approx. 14 days after treating; 30/21° C.
How it was run: as §3

[8] = system: AGRRE (quackgrass (seedling)); assay: Pre-emergence herbicidal activity, cool season; assay type: in vivo, Elymus repens; conditions: GR80 = lowest tested rate (300, 100, 30, 10 g/ha) with 80% or greater inhibition; approx. 14 days after treating; 18/13° C.
Description: as §4, §5, §6, §7

STEME (common chickweed) = assay: Pre-emergence herbicidal activity, cool season; assay type: in vivo, Stellaria media; conditions: lowest tested rate with 80% or greater inhibition; rates 300, 100, 30, 10 g/ha; about 14 days
How it was run: as §1

[9] = system: LAMPU (purple deadnettle); assay: Pre-emergence herbicidal activity, cool season; assay type: in vivo, Lamium purpureum; conditions: lowest tested rate with 80% or greater inhibition; rates 300, 100, 30, 10 g/ha; about 14 days
How it was run: as §1

ECHCG (barnyardgrass) = assay: Pre-emergence herbicidal activity, warm season; assay type: in vivo, Echinochloa crus-galli; conditions: GR80 = lowest tested rate (300, 100, 30, 10 g/ha) with 80% or greater inhibition; approx. 14 days after treating; 30/21° C.
How it was run: as §2

PANDI (fall panicum) = assay: Pre-emergence herbicidal activity, warm season; assay type: in vivo, Panicum dichotomiflorum; conditions: GR80 = lowest tested rate (300, 100, 30, 10 g/ha) with 80% or greater inhibition; approx. 14 days after treating; 30/21° C.
How it was run: as §2

POROL (common purslane) = assay: Pre-emergence herbicidal activity, warm season; assay type: in vivo, Portulaca oleracea; conditions: GR80 = lowest tested rate (300, 100, 30, 10 g/ha) with 80% or greater inhibition; approx. 14 days after treating; 30/21° C.
How it was run: as §1

AVEFA (wild oat) = assay: Pre-emergence herbicidal activity, cool season; assay type: in vivo, Avena fatua; conditions: GR80 = lowest tested rate (300, 100, 30, 10 g/ha) with 80% or greater inhibition; approx. 14 days after treating; 18/13° C.
Description: as §4, §5, §6, §7

SOLNI (black nightshade) = assay: Pre-emergence herbicidal activity, warm season; assay type: in vivo, Solanum nigrum; conditions: GR80 = lowest tested rate (300, 100, 30, 10 g/ha) with 80% or greater inhibition; approx. 14 days after treating; 30/21° C.
How it was run: as §1

[10] = system: AEGCY (jointed goatgrass); assay: Pre-emergence herbicidal activity, cool season; assay type: in vivo, Aegilops cylindrica; conditions: GR80 = lowest tested rate (300, 100, 30, 10 g/ha) with 80% or greater inhibition; approx. 14 days after treating; 18/13° C.
Description: as §4, §5, §6, §7

SETVI (green foxtail) = assay: Pre-emergence herbicidal activity, cool season; assay type: in vivo, Setaria viridis; conditions: GR80 = lowest tested rate (300, 100, 30, 10 g/ha) with 80% or greater inhibition; approx. 14 days after treating; 18/13° C.
How it was run: as §1

[11] = system: CIRAR (canada thistle (seedling)); assay: Pre-emergence herbicidal activity, warm season; assay type: in vivo, Cirsium arvense; conditions: GR80 = lowest tested rate (300, 100, 30, 10 g/ha) with 80% or greater inhibition; approx. 14 days after treating; 30/21° C.
How it was run: as §1

SMILES	Pre-emergence activity GR80, SINAR (SINAR (wild mustard))	Pre-emergence activity (GR80) AGSST [2] [g/ha]	Pre-emergence activity GR80, SASKR (SASKR (russian thistle))	Pre-emergence activity (GR80) PANMI [3] [g/ha]	Pre-emergence activity GR80, POLCO (POLCO (wild buckwheat))	Pre-emergence activity (GR80) ALOMY (ALOMY (blackgrass))	Pre-emergence activity GR80, VERPE [5]	Pre-emergence activity (GR80) SETFA (SETFA (giant foxtail)) [g/ha]	Pre-emergence activity (GR80) BRAPP [6] [g/ha]	Pre-emergence activity GR80, GALAP [7]	Pre-emergence activity (GR80) DIGSA (DIGSA (large crabgrass)) [g/ha]	Pre-emergence activity (GR80) AGRRE [8] [g/ha]	Pre-emergence activity GR80, STEME (STEME (common chickweed)) [g/ha]	Pre-emergence activity GR80, LAMPU [9]	Pre-emergence activity (GR80) POROL (POROL (common purslane)) [g/ha]	Pre-emergence activity (GR80) AVEFA (AVEFA (wild oat)) [g/ha]	Pre-emergence activity (GR80) AEGCY [10] [g/ha]	Pre-emergence activity (GR80) SETVI (SETVI (green foxtail)) [g/ha]	also measured
CCOC(=O)C(F)(F)S(=O)(=O)c1ncn(C(=O)N(CC)CC)n1 [Example 7]	* (activity observed, at least at highest rate, but <80% inhibition)	300	[empty]	300	[empty]	* (activity observed, at least at highest rate, but <80% inhibition)	[empty]	300	300	[empty]	300	300	30	[empty]					Pre-emergence activity (GR80) DATST (DATST (jimsonweed)): 300 g/ha; Pre-emergence activity (GR80) SORHA [1]: 300 g/ha; Pre-emergence activity GR80, KCHSC (KCHSC (kochia)): [empty]; Pre-emergence activity (GR80) CHEAL [4]: 300 g/ha; Pre-emergence activity (GR80) AMARE (AMARE (redroot pigweed)): 300 g/ha; Pre-emergence activity (GR80) ECHCG (ECHCG (barnyardgrass)): 300 g/ha; Pre-emergence activity (GR80) PANDI (PANDI (fall panicum)): 300 g/ha
COCCN(C)C(=O)n1cnc(S(=O)(=O)C(F)(F)C(F)(F)Br)n1 [Example 76]	10 g/ha	100	30 g/ha	100	300 g/ha	300 g/ha	30 g/ha	300		100 g/ha	300	100	300	100 g/ha	300	300	300	100	Pre-emergence activity (GR80) SOLNI (SOLNI (black nightshade)): 300 g/ha
C=CCN(C)C(=O)n1cnc(S(=O)(=O)C(F)F)n1 [Example 30]	100 g/ha	30	10 g/ha	100	100 g/ha	300 g/ha	10 g/ha	300	300	100 g/ha	300		10	10 g/ha	300	100	100	300	Pre-emergence activity (GR80) CIRAR [11]: 300 g/ha
